Laboratory results: patent publication US8791140B2, “Crystalline forms of 6-[2-(methylcarbamoyl)phenylsulfanyl]-3-E-[2-(pyridin-2-yl)ethenyondazole suitable for the treatment of abnormal cell growth in mammals” (Pfizer Inc., priority 2007, dated 2014)

Conditions: solid, 1X ICH Option 1 light exposure, Atlas Suntest XLS+ light box, 320 nm cutoff filter
Protocol: A photochemical comparative study of Form XLI, Form XXV, and Form IV was performed.
Approximately 50 mg of each form was placed in 20 ml glass vials. The sample depth was <3 mm. The vials were covered with a quartz glass dish and placed in an Atlas Suntest XLS+ light box equipped with a 320 nm cutoff filter. […] The samples were exposed to artificial light equivalent to the International Conference on Harmonization (ICH) Guidelines for Photostability Testing of New Drug Substances, Option 1 exposure.

| Compound | Potency (wt/wt %) after light exposure [%] |
| --- | --- |
| CNC(=O)c1ccccc1Sc1ccc2c(/C=C/c3ccccn3)n[nH]c2c1 [Form IV, 6-[2-(methylcarbamoyl)phenylsulfanyl]-3-E-[2-(pyridin-2-yl)ethenyl]indazole] | 34 |
| CNC(=O)c1ccccc1Sc1ccc2c(/C=C/c3ccccn3)n[nH]c2c1 [Form XLI, 6-[2-(methylcarbamoyl)phenylsulfanyl]-3-E-[2-(pyridin-2-yl)ethenyl]indazole] | 89 |
| CNC(=O)c1ccccc1Sc1ccc2c(/C=C/c3ccccn3)n[nH]c2c1 [Form XXV, 6-[2-(methylcarbamoyl)phenylsulfanyl]-3-E-[2-(pyridin-2-yl)ethenyl]indazole] | 100 |
